According to US20230085307A1, “PYRIDAZINONE COMPOUND AND HERBICIDE” (NISSAN CHEMICAL CORPORATION, priority 2019, published 2023):

Assays:
[1] = system: green foxtail; assay: Test Example 4: herbicidal effect by soil treatment (Table 19, symbol G); assay type: in vivo, green foxtail (Setaria viridis)
Outline: (§1)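 Three weeks of greenhouse growth at 25° C. to 30° C. followed a uniform surface spray of water-diluted emulsion at a predetermined herbicide amount. Seeds had been sown beforehand under about 1.5 cm of sterilized diluvial soil. Grading followed criteria set out in an earlier test.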

[2] = system: blackgrass; assay: Test Example 5: herbicidal effect by foliage application, plastic box (Table 20, symbol J); assay type: in vivo, blackgrass (Alopecurus myosuroides); conditions: foliage application, three weeks after application
Outline: (§2)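 Plants sown in sterilized diluvial soil and grown 14 days in a greenhouse at 25° C to 30° C, then sprayed on the foliage with the compound's emulsion diluted in water to a predetermined herbicide amount. Injury to weeds and crops scored three weeks after application on a visual rating scale.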

[3] = system: late watergrass; assay: Test Example 2: herbicidal activity, application during weed generation under submerged conditions (Table 17, symbol A); assay type: in vivo, late watergrass (Echinochloa oryzicola); conditions: application during weed generation, submerged conditions
Outline: (§3)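 Wagner pot, alluvial soil, 4 cm flood; mixed sowing of all species; greenhouse 25° C.–30° C. Emulsifiable formulation, water-diluted to predetermined dose, applied to paddy water at 1–2 leaf stage. Effect rated at 3 wk using the earlier test's scoring criteria.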

[4] = system: chickweed; assay: Test Example 5: herbicidal effect by foliage application, plastic box (Table 20, symbol P); assay type: in vivo, common chickweed (Stellaria media); conditions: foliage application, three weeks after application
Outline: as §2

[5] = system: chickweed; assay: Test Example 4: herbicidal effect by soil treatment (Table 19, symbol P); assay type: in vivo, common chickweed (Stellaria media)
Outline: as §1

[6] = system: Japanese bulrush; assay: Test Example 1: herbicidal activity, application before weed generation under submerged conditions (Table 16, symbol B); assay type: in vivo, Japanese bulrush (Schoenoplectus juncoides)
Outline: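 Alluvial soil was flooded to 4 cm depth, weed seeds were sown mixed and 2.5-leaf rice seedlings were transplanted. On sowing day, the compound's emulsion, diluted in water to a set dose, was applied to the water surface. Plants grew at 25–30 °C and were scored 0–5 after three weeks.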

[7] = system: rice flat sedge; assay: Test Example 3: herbicidal effect by foliage application, Wagner pot (Table 18, symbol E); assay type: in vivo, rice flat sedge (Cyperus iria)
Outline: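 Plants were sown in alluvial soil held under 0.1–0.5 cm standing water and grown 14 days in a greenhouse at 25–30 °C. An emulsifiable formulation, water-diluted to the set dose, was then sprayed onto the foliage, and effects were scored three weeks later using previously defined criteria.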

[8] = system: southern crabgrass; assay: Test Example 4: herbicidal effect by soil treatment (Table 19, symbol F); assay type: in vivo, southern crabgrass (Digitaria ciliaris)
Outline: as §1

[9] = system: velvetleaf; assay: Test Example 4: herbicidal effect by soil treatment (Table 19, symbol M); assay type: in vivo, velvetleaf (Abutilon theophrasti)
Outline: as §1

[10] = system: wild oat; assay: Test Example 5: herbicidal effect by foliage application, plastic box (Table 20, symbol I); assay type: in vivo, wild oat (Avena fatua); conditions: foliage application, three weeks after application
Outline: as §2

[11] = system: wild oat; assay: Test Example 4: herbicidal effect by soil treatment (Table 19, symbol I); assay type: in vivo, wild oat (Avena fatua)
Outline: as §1

[12] = system: barnyard grass; assay: Test Example 5: herbicidal effect by foliage application, plastic box (Table 20, symbol H); assay type: in vivo, barnyard grass (Echinochloa crus-galli); conditions: foliage application, three weeks after application
Outline: as §2

[13] = system: blackgrass; assay: Test Example 4: herbicidal effect by soil treatment (Table 19, symbol J); assay type: in vivo, blackgrass (Alopecurus myosuroides)
Outline: as §1

[14] = system: redroot pigweed; assay: Test Example 4: herbicidal effect by soil treatment (Table 19, symbol N); assay type: in vivo, redroot pigweed (Amaranthus retroflexus)
Outline: as §1

[15] = system: oval-leafed pondweed; assay: Test Example 2: herbicidal activity, application during weed generation under submerged conditions (Table 17, symbol C); assay type: in vivo, oval-leafed pondweed (Monochoria vaginalis); conditions: application during weed generation, submerged conditions
Outline: as §3

[16] = system: Japanese bulrush; assay: Test Example 2: herbicidal activity, application during weed generation under submerged conditions (Table 17, symbol B); assay type: in vivo, Japanese bulrush (Schoenoplectus juncoides); conditions: application during weed generation, submerged conditions
Outline: as §3

[17] = system: redroot pigweed; assay: Test Example 5: herbicidal effect by foliage application, plastic box (Table 20, symbol N); assay type: in vivo, redroot pigweed (Amaranthus retroflexus); conditions: foliage application, three weeks after application
Outline: as §2

[18] = amount of applied herbicide 80 g/ha
[19] = amount of applied herbicide 320 g/ha

CCOc1cc(F)ccc1-c1sc2cc(OC)ccc2c1-c1c(O)c(C)nn(C)c1=O [3-078]
G: green foxtail, herbicidal effect grade [1, 18]: 0 (Herbicidal rate of 5% or less (almost no effect))
J: blackgrass, herbicidal effect grade ([2]; 80 g/ha): 4 (Herbicidal rate of 70% or more and less than 90%)
herbicidal effect rating, A: late watergrass ([3]; AAH 80 g/ha): 1 (Herbicidal rate of 5% or more and less than 20%)
P: chickweed, herbicidal effect grade ([4]; 80 g/ha): 5 (Herbicidal rate of 90% or more (almost completely withered))
P: chickweed, herbicidal effect grade [5, 18]: 5 (Herbicidal rate of 90% or more (almost completely withered))
Herbicidal effect, B: Japanese bulrush [6, 18]: 5 (Herbicidal rate of 90% or more (almost completely withered))
herbicidal effect on rice flat sedge (E) ([7]; 80 g/ha): 5 (Herbicidal rate of 90% or more (almost completely withered))
F: southern crabgrass, herbicidal effect grade [8, 18]: 4 (Herbicidal rate of 70% or more and less than 90%)
M: velvetleaf, herbicidal effect grade [9, 18]: 0 (Herbicidal rate of 5% or less (almost no effect))
I: wild oat, herbicidal effect grade ([10]; 80 g/ha): 5 (Herbicidal rate of 90% or more (almost completely withered))
I: wild oat, herbicidal effect grade [11, 18]: 0 (Herbicidal rate of 5% or less (almost no effect))
H: barnyard grass, herbicidal effect grade ([12]; 80 g/ha): 5 (Herbicidal rate of 90% or more (almost completely withered))
J: blackgrass, herbicidal effect grade [13, 18]: 5 (Herbicidal rate of 90% or more (almost completely withered))
N: redroot pigweed, herbicidal effect grade [14, 18]: 3 (Herbicidal rate of 40% or more and less than 70%)
herbicidal effect rating, C: oval-leafed pondweed ([15]; AAH 80 g/ha): 4 (Herbicidal rate of 70% or more and less than 90%)
herbicidal effect rating, B: Japanese bulrush ([16]; AAH 80 g/ha): 5 (Herbicidal rate of 90% or more (almost completely withered))
N: redroot pigweed, herbicidal effect grade ([17]; 80 g/ha): 5 (Herbicidal rate of 90% or more (almost completely withered))

CCCC(=O)Oc1c(C)nn(C)c(=O)c1-c1c(-c2ccc(F)cc2OCC)sc2cc(OC)ccc12 [3-079]
G: green foxtail, herbicidal effect grade [1, 19]: 1 (Herbicidal rate of 5% or more and less than 20%)
J: blackgrass, herbicidal effect grade ([2]; 320 g/ha): 4 (Herbicidal rate of 70% or more and less than 90%)
herbicidal effect rating, A: late watergrass ([3]; AAH 320 g/ha): 5 (Herbicidal rate of 90% or more (almost completely withered))
P: chickweed, herbicidal effect grade ([4]; 320 g/ha): 5 (Herbicidal rate of 90% or more (almost completely withered))
P: chickweed, herbicidal effect grade [5, 19]: 4 (Herbicidal rate of 70% or more and less than 90%)
Herbicidal effect, B: Japanese bulrush [6, 19]: 5 (Herbicidal rate of 90% or more (almost completely withered))
herbicidal effect on rice flat sedge (E) ([7]; 320 g/ha): 5 (Herbicidal rate of 90% or more (almost completely withered))
F: southern crabgrass, herbicidal effect grade [8, 19]: 4 (Herbicidal rate of 70% or more and less than 90%)
M: velvetleaf, herbicidal effect grade [9, 19]: 3 (Herbicidal rate of 40% or more and less than 70%)
I: wild oat, herbicidal effect grade ([10]; 320 g/ha): 5 (Herbicidal rate of 90% or more (almost completely withered))
I: wild oat, herbicidal effect grade [11, 19]: 0 (Herbicidal rate of 5% or less (almost no effect))
H: barnyard grass, herbicidal effect grade ([12]; 320 g/ha): 5 (Herbicidal rate of 90% or more (almost completely withered))
J: blackgrass, herbicidal effect grade [13, 19]: 2 (Herbicidal rate of 20% or more and less than 40%)
N: redroot pigweed, herbicidal effect grade [14, 19]: 4 (Herbicidal rate of 70% or more and less than 90%)
herbicidal effect rating, C: oval-leafed pondweed ([15]; AAH 320 g/ha): 5 (Herbicidal rate of 90% or more (almost completely withered))
herbicidal effect rating, B: Japanese bulrush ([16]; AAH 320 g/ha): 5 (Herbicidal rate of 90% or more (almost completely withered))
N: redroot pigweed, herbicidal effect grade ([17]; 320 g/ha): 4 (Herbicidal rate of 70% or more and less than 90%)

COc1ccc2c(-c3c(O)c(C)nn(C)c3=O)c(-c3ccc4c(c3)OCCO4)sc2c1 [3-082]
G: green foxtail, herbicidal effect grade [1, 19]: 0 (Herbicidal rate of 5% or less (almost no effect))
J: blackgrass, herbicidal effect grade ([2]; 320 g/ha): 1 (Herbicidal rate of 5% or more and less than 20%)
herbicidal effect rating, A: late watergrass ([3]; AAH 320 g/ha): 2 (Herbicidal rate of 20% or more and less than 40%)
P: chickweed, herbicidal effect grade ([4]; 320 g/ha): 5 (Herbicidal rate of 90% or more (almost completely withered))
P: chickweed, herbicidal effect grade [5, 19]: 4 (Herbicidal rate of 70% or more and less than 90%)
Herbicidal effect, B: Japanese bulrush [6, 19]: 5 (Herbicidal rate of 90% or more (almost completely withered))
herbicidal effect on rice flat sedge (E) ([7]; 320 g/ha): 5 (Herbicidal rate of 90% or more (almost completely withered))
F: southern crabgrass, herbicidal effect grade [8, 19]: 0 (Herbicidal rate of 5% or less (almost no effect))
M: velvetleaf, herbicidal effect grade [9, 19]: 0 (Herbicidal rate of 5% or less (almost no effect))
I: wild oat, herbicidal effect grade ([10]; 320 g/ha): 0 (Herbicidal rate of 5% or less (almost no effect))
I: wild oat, herbicidal effect grade [11, 19]: 0 (Herbicidal rate of 5% or less (almost no effect))
H: barnyard grass, herbicidal effect grade ([12]; 320 g/ha): 3 (Herbicidal rate of 40% or more and less than 70%)
J: blackgrass, herbicidal effect grade [13, 19]: 0 (Herbicidal rate of 5% or less (almost no effect))
N: redroot pigweed, herbicidal effect grade [14, 19]: 3 (Herbicidal rate of 40% or more and less than 70%)
herbicidal effect rating, C: oval-leafed pondweed ([15]; AAH 320 g/ha): 3 (Herbicidal rate of 40% or more and less than 70%)
herbicidal effect rating, B: Japanese bulrush ([16]; AAH 320 g/ha): 1 (Herbicidal rate of 5% or more and less than 20%)
N: redroot pigweed, herbicidal effect grade ([17]; 320 g/ha): 5 (Herbicidal rate of 90% or more (almost completely withered))

CCCC(=O)Oc1c(C)nn(C)c(=O)c1-c1c(-c2ccc3c(c2)OCCO3)sc2cc(OC)ccc12 [3-083]
G: green foxtail, herbicidal effect grade [1, 19]: 4 (Herbicidal rate of 70% or more and less than 90%)
J: blackgrass, herbicidal effect grade ([2]; 320 g/ha): 0 (Herbicidal rate of 5% or less (almost no effect))
herbicidal effect rating, A: late watergrass ([3]; AAH 320 g/ha): 2 (Herbicidal rate of 20% or more and less than 40%)
P: chickweed, herbicidal effect grade ([4]; 320 g/ha): 5 (Herbicidal rate of 90% or more (almost completely withered))
P: chickweed, herbicidal effect grade [5, 19]: 5 (Herbicidal rate of 90% or more (almost completely withered))
Herbicidal effect, B: Japanese bulrush [6, 19]: 4 (Herbicidal rate of 70% or more and less than 90%)
herbicidal effect on rice flat sedge (E) ([7]; 320 g/ha): 4 (Herbicidal rate of 70% or more and less than 90%)
F: southern crabgrass, herbicidal effect grade [8, 19]: 0 (Herbicidal rate of 5% or less (almost no effect))
M: velvetleaf, herbicidal effect grade [9, 19]: 0 (Herbicidal rate of 5% or less (almost no effect))
I: wild oat, herbicidal effect grade ([10]; 320 g/ha): 0 (Herbicidal rate of 5% or less (almost no effect))
I: wild oat, herbicidal effect grade [11, 19]: 0 (Herbicidal rate of 5% or less (almost no effect))
H: barnyard grass, herbicidal effect grade ([12]; 320 g/ha): 2 (Herbicidal rate of 20% or more and less than 40%)
J: blackgrass, herbicidal effect grade [13, 19]: 0 (Herbicidal rate of 5% or less (almost no effect))
N: redroot pigweed, herbicidal effect grade [14, 19]: 0 (Herbicidal rate of 5% or less (almost no effect))
herbicidal effect rating, C: oval-leafed pondweed ([15]; AAH 320 g/ha): 4 (Herbicidal rate of 70% or more and less than 90%)
herbicidal effect rating, B: Japanese bulrush ([16]; AAH 320 g/ha): 3 (Herbicidal rate of 40% or more and less than 70%)
N: redroot pigweed, herbicidal effect grade ([17]; 320 g/ha): 3 (Herbicidal rate of 40% or more and less than 70%)

CCOc1ccc2c(-c3c(O)c(C)nn(C)c3=O)c(-c3ccccc3OC)sc2c1 [3-089]
G: green foxtail, herbicidal effect grade [1, 19]: 4 (Herbicidal rate of 70% or more and less than 90%)
J: blackgrass, herbicidal effect grade ([2]; 320 g/ha): 5 (Herbicidal rate of 90% or more (almost completely withered))
herbicidal effect rating, A: late watergrass ([3]; AAH 320 g/ha): 4 (Herbicidal rate of 70% or more and less than 90%)
P: chickweed, herbicidal effect grade ([4]; 320 g/ha): 5 (Herbicidal rate of 90% or more (almost completely withered))
P: chickweed, herbicidal effect grade [5, 19]: 4 (Herbicidal rate of 70% or more and less than 90%)
Herbicidal effect, B: Japanese bulrush [6, 19]: 5 (Herbicidal rate of 90% or more (almost completely withered))
herbicidal effect on rice flat sedge (E) ([7]; 320 g/ha): 5 (Herbicidal rate of 90% or more (almost completely withered))
F: southern crabgrass, herbicidal effect grade [8, 19]: 5 (Herbicidal rate of 90% or more (almost completely withered))
M: velvetleaf, herbicidal effect grade [9, 19]: 0 (Herbicidal rate of 5% or less (almost no effect))
I: wild oat, herbicidal effect grade ([10]; 320 g/ha): 3 (Herbicidal rate of 40% or more and less than 70%)
I: wild oat, herbicidal effect grade [11, 19]: 1 (Herbicidal rate of 5% or more and less than 20%)
H: barnyard grass, herbicidal effect grade ([12]; 320 g/ha): 5 (Herbicidal rate of 90% or more (almost completely withered))
J: blackgrass, herbicidal effect grade [13, 19]: 4 (Herbicidal rate of 70% or more and less than 90%)
N: redroot pigweed, herbicidal effect grade [14, 19]: 5 (Herbicidal rate of 90% or more (almost completely withered))
herbicidal effect rating, C: oval-leafed pondweed ([15]; AAH 320 g/ha): 5 (Herbicidal rate of 90% or more (almost completely withered))
herbicidal effect rating, B: Japanese bulrush ([16]; AAH 320 g/ha): 5 (Herbicidal rate of 90% or more (almost completely withered))
N: redroot pigweed, herbicidal effect grade ([17]; 320 g/ha): 5 (Herbicidal rate of 90% or more (almost completely withered))
